Patent US9428513B2, “Triazolopyrazine” (Boehringer Ingelheim International GmbH, priority 2013, dated 2016)

Target: BRD4-BD1 (Homo sapiens (Human), UniProt O60885)
Assay: BRD4-H4 Tetraacetylated Peptide Inhibition AlphaScreen
Type: biochemical
Details: GST-BRD4-BD1 (aa 44-168) / biotinylated Acetyl-Histone H4 (Lys5, 8, 12, 16) peptide
Description: Biological Methods BRD4-H4 Tetraacetylated Peptide Inhibition AlphaScreen
Compounds are diluted in serial dilution 1:5 in assay buffer from 10 mM stock in DMSO (100 μM start concentration) in white OptiPlate-384 (PerkinElmer). A mix consisting of 15 nM GST-BRD4-BD1 protein (aa 44-168) or 150 nM GST-BRD4-BD2 (aa 333-460) and 15 nM biotinylated Acetyl-Histone H4 (Lys5, 8, 12, 16) peptide is prepared in assay buffer (50 mM HEPES pH=7.4; 25 mM NaCl; 0.05% Tween 20; 0.1% bovine serum albumin (BSA); 10 mM dithiothreitol (DTT)). 6 μl of the mix is added to the compound dilutions. Subsequently, 6 μl of premixed AlphaLISA Glutathione Acceptor Beads and AlphaScreen Streptavidin Donor Beads from PerkinElmer (in assay buffer at a concentration of 10 μg/ml each) are added and the samples are incubated for 30 min at RT in the dark (shaking 300 rpm). Afterwards, the signal is measured in a PerkinElmer Envision HTS Multilabel Reader using the AlphaScreen protocol from PerkinElmer.
Each plate contains negative controls where biotinylated Acetyl-Histone H4 peptide and GST-BRD4-BD1 or GST-BRD4-BD2 are left out and replaced by assay buffer. Negative control values are entered as low basis value when using the software GraphPad Prism for calculations. Furthermore, a positive control (probe molecule JQ1+ with protein/peptide mix) is pipetted. Determination of IC50 values are carried out using GraphPad Prism 3.03 software (or updates thereof).

Row | IC50 | Compound
1 | 22 nM | COC[C@H](C)n1c(-c2cn3c(C)nnc3c(NC(C)C)n2)nc2cc3c(cc21)N(C)C(=O)C3(C)C [I-16]
2 | 69 nM | COC[C@H](C)n1c(-c2cn3c(C)nnc3c(NC(C)C)n2)nc2cnc(N)cc21 [I-18]
3 | 51 nM | CNc1nc(-c2nc3cnc(N4CCOCC4)cc3n2[C@@H](C)COC)cn2c(C)nnc12 [I-6]
4 | 58 nM | COC[C@H](C)n1c(-c2cn3c(C)nnc3c(NC(C)C)n2)nc2ccc(N3CCOC[C@@H]3C)cc21 [I-19]
5 | 9 nM | Cc1nnc2c(NC(C)C)nc(-c3nc4cnc(N5CCOC[C@@H]5C)cc4n3C(C)CC3CC3)cn12 (stereo partly shown) [I-25]
6 | 55 nM | CNc1nc(-c2nc3cnc(N4CCOCC4)cc3n2C[C@@H]2CCCO2)cn2c(C)nnc12 [I-7]
7 | 27 nM | CNc1nc(-c2nc3cnc(N4CCOC[C@@H]4C)cc3n2[C@@H](C)COC)cn2c(C)nnc12 [I-13]
8 | 55 nM | Cc1nnc2c(NC(C)C)nc(-c3nc4cnc(N5CCOCC5)cc4n3C[C@@H]3CCCO3)cn12 [I-8]
9 | 32 nM | COCCn1c(-c2cn3c(C)nnc3c(NC(C)C)n2)nc2cnc(N3CCOCC3)cc21 [I-1, 6-[1-(2-methoxyethyl)-6-(morpholin-4-yl)-1H-imidazo[4,5-c]pyridin-2-yl]-3-methyl-N-(propan-2-yl)-[1,2,4]triazolo[4,3-a]pyrazin-8-amine]
10 | 33 nM | COC[C@H](C)n1c(-c2cn3c(C)nnc3c(NC(C)C)n2)nc2cnc(N3CCOCC3)cc21 [I-3]
11 | 17 nM | COC[C@H](C)n1c(-c2cn3c(C)nnc3c(NC(C)C)n2)nc2cc3c(cc21)N(C(C)C)S(=O)(=O)C3(C)C [I-21]
12 | 43 nM | Cc1nnc2c(NC(C)C)nc(-c3nc4cnc(N5CCOCC5)cc4n3CCOC(C)C)cn12 [I-4]
13 | 157 nM | COC[C@H](C)n1c(-c2cn3c(C)nnc3c(NC(C)C)n2)nc2ccc(N)cc21 [I-20]
14 | 51 nM | COC[C@H](C)n1c(-c2cn3c(C)nnc3c(NC(C)C)n2)nc2cnc(N3CCOC[C@@H]3C)cc21 [I-12]
15 | 333 nM | COC[C@@H](C)n1c(-c2cn3c(C)nnc3c(NC(C)C)n2)nc2cnc(N3CCOCC3)cc21 [I-2]
16 | 123 nM | COC[C@H](C)n1c(-c2cn3c(C)nnc3c(N)n2)nc2cnc(N3CCOCC3)cc21 [I-26]
17 | 123 nM | COC[C@H](C)n1c(-c2cn3c(C)nnc3c(NC(C)C)n2)nc2ccc(C(C)C)cc21 [I-15]
18 | 26 nM | Cc1nnc2c(NC(C)C)nc(-c3nc4cnc(N5CCOC[C@@H]5C)cc4n3C(C)CC(F)(F)F)cn12 (stereo partly shown) [I-27]
19 | 549 nM | CNc1nc(-c2nc3cnc(N4CCOCC4)cc3n2[C@H](C)COC)cn2c(C)nnc12 [I-11]
20 | 49 nM | COC[C@H](C)n1c(-c2cn3c(C)nnc3c(NC(C)C)n2)nc2ccc(C3CCOCC3)cc21 [I-14]
21 | 122 nM | Cc1nnc2c(NC3CCN(S(C)(=O)=O)CC3)nc(-c3nc4cnc(N5CCOCC5)cc4n3CCOC(C)C)cn12 [I-23]
22 | 69 nM | COC[C@H](C)n1c(-c2cn3c(C)nnc3c(NC(C)C)n2)nc2ccc(N3CCOCC3)nc21 [I-28]
23 | 33 nM | CCOCCn1c(-c2cn3c(C)nnc3c(NC(C)C)n2)nc2cnc(N3CCOCC3)cc21 [I-5]
24 | 35 nM | Cc1nnc2c(NC3CCN(C)CC3)nc(-c3nc4cnc(N5CCOCC5)cc4n3CCOC(C)C)cn12 [I-22]
25 | 63 nM | COC[C@H](C)n1c(-c2cn3c(C)nnc3c(NC(C)C)n2)nc2ccc(C3CN(C)CCO3)cc21 (stereo partly shown) [I-24]
26 | 49 nM | COCCn1c(-c2cn3c(C)nnc3c(NC(C)C)n2)nc2nc(N3CCOCC3)ccc21 [I-29]
27 | 54 nM | Cc1nnc2c(NC(C)C)nc(-c3nc4cnc(N5CCOCC5)cc4n3C[C@H]3CCCO3)cn12 [I-10]
28 | 65 nM | CNc1nc(-c2nc3cnc(N4CCOCC4)cc3n2CC2CCCO2)cn2c(C)nnc12 (stereo not shown) [I-9]
